Laboratory results as given in patent publication US4107307A, “Imidazo [1,5-d]-as-triazine-4(3H)-ones and thiones” (American Cyanamid Company, priority 1977, dated 1978).

What was measured:
[1] = tested on: Mouse Skin Phosphodiesterase; test: Mouse skin phosphodiesterase (PDE) inhibition test (A); format: biochemical, hairless mice; set-up: key: Active: A compound is considered active if it inhibits more than theophylline, that is, to 50% of control at 1 mM concentration of compound, or to 80% of control of 0.05 mM concentration of compound; details: mouse epidermal PDE, test compound 10 ug./ml., 30° C. 15 min
[2] = tested on: Monkey Lung Cyclic AMP Phosphodiesterase; test: Monkey lung cyclic AMP phosphodiesterase inhibition test (B); format: biochemical, African green monkeys; details: method: monkey lung PDE, 10^-6 M cyclic AMP, compound usually 1 mM or 0.1 mM, 25° C. 20 min
Description: The inhibition of phosphodiesterase is determined by the mouse skin and monkey lung phosphodiesterase (PDE) inhibition tests as follows:
(B) MONKEY LUNG INHIBITION
Preparation of Monkey Lung Cyclic AMP Phosphodiesterase
Lung parenchyma of African green monkeys is homogenized in a Waring blender and centrifuged at 40,000 × gravity for 20 minutes. The supernatant is brought to 70% saturation of ammonium sulfate, centrifuged and the pellet redissolved and dialysed, before aliquoting and storage at -20° C.
Assay of Monkey Lung Phosphodiesterase
Phosphodiesterase is assayed by the method of Thompson and Appleman, ibid. An assay tube contains a 0.4 ml. solution of the following: 45 mM tris-HCl buffer, pH 7.4, […], 0.1 mM dithioerythritol, 10^-6 M cyclic AMP, 0.1 uCi [^3 H]-cyclic AMP, and test compound at the desired concentration (usually 1 mM or 0.1 mM). Compounds not readily soluble in water are dissolved at 40 times the desired concentration in methanol, and diluted 20 times with water. If the compound is not dissolved at this time, it is suspended by sonication before being diluted 1:2 into the assay tube. In this case the activity of the enzyme in the presence of the compound is compared to a solvent control (2.5% methanol), although the solvent alone has negligible effect. The reaction is initiated by addition of enzyme and proceeds at 25° C. for 20 minutes. It is terminated by incubation at 100° C. for 2 minutes. The tubes are cooled to 25° C., 0.8 ug of 5'-nucleotidase (Crotolu adamantus toxin) is added to each and the tubes incubated at 25° C. for 30 minutes. A 1 milliliter suspension of Bio-Rad Labs. AGIX8 (about 0.5 ml. of settled resin) is added, the tubes centrifuged at 900 × gravity for 10 minutes and an aliquot of supernatant removed for scintillation counting. The inhibition by the test compound is calculated as: [formula] where `compound` is the cpm in the presence of compound, `control` is the cpm in the absence of compound, and `blank` is the cpm in the absence of enzyme. […] For this reason, control tubes which contained [^3 H]-AMP instead of [^3 H]-cyclic AMP are run in parallel. A correction of the apparent phosphodiesterase activity is made for the rare compound which inhibited the hydrolysis of AMP.

[3] = tested on: spontaneous hypertensive rats; test: Anti-hypertensive activity, mean arterial blood pressure of conscious spontaneous hypertensive rats; format: in vivo, rat (adult male spontaneous hypertensive); details: second identical dose at 24th hour, vehicle controls 166
Description: These compounds have been tested pharmacologically and found to have such properties with a desirable wide spread between doses producing lowered blood pressure and toxic symptoms. In determining this effect of these compounds on hypertension, adult male, 16-20 weeks old, spontaneous hypertensive rats from Taconic Farms, Germantown, N.Y., weighing about 300 grams are used. The rats are dosed by gavage with the test compounds at the indicated dose. All doses of drug were suspended in 2% starch (2 ml./kg.). A second identical dose of the test compound is given at the 24th hour. The mean arterial blood pressure (MAP) of the conscious rats is measured directly by femoral artery puncture at the 28th hour.

[4] = Dispersion of aerosol suspension on warming after storage; format: physicochemical; details: aerosol in dichlorodifluoromethane with sorbitan trioleate
Description: The active ingredient and sorbitan trioleate are placed in a beaker and the dichlorodifluoromethane is added at -40° C. whereupon a suspension is formed. The mixture is sonified, that is, treated with a Sonifier, manufactured by the Branson Sonic Power Co. of Danbury, Conn., as model LS-75 at a current input of 9 amperes for 2 minutes. Additional cold dichlorodifluoromethane is added as necessary to keep the volume at 100 ml. The mixture is uniformly dispersed, and has increased stability resulting from the sonification. Each of six 19 ml. stainless steel containers are filled with 15 ml. of the cold mixture, then valves are inserted and sealed in place.

Mouse Skin Phosphodiesterase (A) [1] | Monkey Lung Phosphodiesterase (B) [2] | SMILES | MAP 28th hour ([3]; 100 mg/kg by gavage) [mm Hg] | other results
Active | – | Cc1nc(Cc2ccccc2)n2c(=O)[nH]ncc12 [6-Benzyl-8-methyl-imidazo[1,5-d]-as-triazin-4(3H)-one] | – | –
Active | Active | Cc1nc(Cc2ccccc2)n2c(=S)[nH]ncc12 [6-Benzyl-8-methyl-imidazo[1,5-d]-as-triazine-4(3H)-thione] | – | –
Active | – | O=c1[nH]ncc2cnc(Cc3ccccc3)n12 [6-Benzyl-imidazo[1,5-d]-as-triazin-4(3H)-one] | – | –
Active | – | O=c1[nH]ncc2cnc(-c3ccccc3)n12 [6-Phenyl-imidazo[1,5-d]-as-triazin-4(3H)-one] | 117 | –
Active | – | CCCc1ncc2cn[nH]c(=O)n12 [6-n-Propyl-imidazo[1,5-d]-as-triazin-4(3H)-one] | – | –
Active | Active | O=c1[nH]ncc2c(Cl)nc(-c3ccccc3)n12 [8-Chloro-6-phenyl-imidazo[1,5-d]-as-triazin-4(3H)-one] | – | –
Active | Active | CCCc1nc(C)c2cn[nH]c(=S)n12 [8-Methyl-6-n-propyl-imidazolo[1,5-d]-as-triazine-4(3H)-thione] | – | –
Active | Active | Cc1nc(-c2ccccc2)n2c(=O)[nH]ncc12 [8-Methyl-6-phenyl-imidazo[1,5-d]-as-triazin-4(3H)-one] | 133 | –
Active | – | Cc1nc(-c2ccccc2)n2c(=S)[nH]ncc12 [8-Methyl-6-phenyl-imidazo[1,5-d]-as-triazine-4-(3H)-thione] | 128 | –
Active | – | Cc1ncn2c(=O)[nH]ncc12 [8-Methyl-imidazo[1,5-d]-as-triazin-4(3H)-one] | 91 | –
Active | – | Cc1ncn2c(=S)[nH]ncc12 [8-Methyl-imidazo[1,5-d]-as-triazine-4-(3H)-thione] | – | MAP 28th hour ([3]; 25 mg/kg by gavage): 130 mm Hg

The next lines start with the compound.

SMILES | Mouse Skin Phosphodiesterase (A) [1] | Monkey Lung Phosphodiesterase (B) [2] | MAP 28th hour ([3]; 100 mg/kg by gavage) [mm Hg] | other results
Cc1nc(C)n2c(=O)[nH]ncc12 [6,8-Dimethyl-imidazo[1,5-d]-as-triazin-4(3H)-one] | Active | Active | – | MAP 28th hour ([3]; 50 mg/kg by gavage): 70 mm Hg
Cc1nc(C)n2c(=S)[nH]ncc12 [6,8-Dimethyl-imidazo[1,5-d]-as-triazine-4-(3H)-thione] | Active | – | 93 | –
COCc1ncc2cn[nH]c(=S)n12 [6-Methoxymethyl-imidazo[1,5-d]-as-triazine-4-(3H)-thione] | – | – | 100 | –
Cc1ncc2cn[nH]c(=O)n12 [6-Methyl-imidazo[1,5-d]-as-triazin-4(3H)-one] | – | – | 120 | –
CCCc1ncc2cn[nH]c(=S)n12 [6-n-Propyl-imidazo[1,5-d]-as-triazine-4(3H)-thione] | Active | Active | 136 | –
CCCOc1ccccc1-c1ncc2cn[nH]c(=O)n12 [6-o-Propoxyphenyl-imidazo[1,5-d]-as-triazine-4(3H)-one] | Active | – | – | –
Cc1nc(C(C)(C)C)n2c(=O)[nH]ncc12 [6-tert-Butyl-8-methyl-imidazo[1,5-d]-as-triazin-4(3H)-one] | Active | Active | 133 | –
CC(C)(C)c1ncc2cn[nH]c(=O)n12 [6-tert-Butyl-imidazo[1,5-d]-as-triazin-4(3H)-one] | Active | – | 135 | –
O=c1[nH]ncc2c(Br)nc(-c3ccccc3)n12 [8-Bromo-6-phenyl-imidazo[1,5-d]-as-triazin-4(3H)-one] | Active | Active | – | –
CCCc1nc(C)c2cn[nH]c(=O)n12 [8-Methyl-6-n-propyl-imidazo[1,5-d]-as-triazin-4(3H)-one] | – | – | – | MAP 28th hour ([3]; 50 mg/kg by gavage): 127 mm Hg
CC(C)c1nc(Cl)c2cn[nH]c(=S)n12 [8-chloro-6-isopropyl-imidazo[1,5-d]-as-triazine-4(3H)-thione] | – | – | – | dispersion after storage [4]: remains dispersed
S=c1[nH]ncc2cncn12 [Imidazo[1,5-d]-as-triazin-4(3H)-thione, Imidazo[1,5-d]-as-triazine-4(3H)-thione] | – | – | 123 | –
